pKi: −log10 of the molar value. Converted amounts (≈) assume the structure as drawn.
Experiments:
mushroom tyrosinase [1] = experiment: enzyme kinetics with L-DOPA substrate, Lineweaver-Burk plot; IC50 […] also reported; type: biochemical
mushroom tyrosinase [2] = experiment: cell-free tyrosinase inhibition assay with L-tyrosine substrate, absorbance at […] nm; type: biochemical

Row | SMILES | pKi (mushroom tyrosinase [1]) | IC50 (mushroom tyrosinase [2])
1 | CCOC(=O)c1cc(O)c(O)c(O)c1 [Compound 1, ethyl gallate] | 3.36 | –
2 | O=C1O[C@H]([C@@H](O)CO)C(O)=C1O [ascorbic acid] | – | 30.99 ± 0.86 µg/mL (≈ 176 µM)
